The target of experiment [1] is IRAK4 (Homo sapiens (Human), UniProt Q9NWZ3). Kind of experiment: IRAK-4 AlphaScreen biochemical kinase assay. As to conditions: 1 nM IRAK4, 1 mM ATP, 3.5 h at RT. The method in brief: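 AlphaScreen read-out: streptavidin beads bind the biotinylated peptide and protein A beads bind the anti-phosphothreonine antibody, so energy transfer reports phosphorylation of the peptide. The kinase is human IRAK-4.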
A general note: In Alpha technology, singlet oxygen from a donor bead excites a nearby acceptor bead.

For experiment [2], the system named is IL-6 in A549 cells. Nature of the experiment: Cell-based IL-6 ELISA assay in IL-1beta stimulated A549 cells. The note with it: 2 ng/ml human IL-1beta overnight. The method in brief: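 A549 cells (2.5×10^4/well, DMEM/10% FBS) pretreated 30 min at 37 C with compound, 10-point serial dilution from 10 uM, then stimulated overnight with 2 ng/ml human IL-1beta. Secreted IL-6 in supernatant quantified by human IL-6 ELISA.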

Broadly, the IC50 is the concentration at which inhibition is half-maximal. A higher IC50 goes with weaker potency in that assay. As a reminder, the EC50 is the concentration giving half of the maximal effect. A higher EC50 goes with lower potency in that assay.

Chain of IRAK4 (Q9NWZ3 whole entry, species assumed): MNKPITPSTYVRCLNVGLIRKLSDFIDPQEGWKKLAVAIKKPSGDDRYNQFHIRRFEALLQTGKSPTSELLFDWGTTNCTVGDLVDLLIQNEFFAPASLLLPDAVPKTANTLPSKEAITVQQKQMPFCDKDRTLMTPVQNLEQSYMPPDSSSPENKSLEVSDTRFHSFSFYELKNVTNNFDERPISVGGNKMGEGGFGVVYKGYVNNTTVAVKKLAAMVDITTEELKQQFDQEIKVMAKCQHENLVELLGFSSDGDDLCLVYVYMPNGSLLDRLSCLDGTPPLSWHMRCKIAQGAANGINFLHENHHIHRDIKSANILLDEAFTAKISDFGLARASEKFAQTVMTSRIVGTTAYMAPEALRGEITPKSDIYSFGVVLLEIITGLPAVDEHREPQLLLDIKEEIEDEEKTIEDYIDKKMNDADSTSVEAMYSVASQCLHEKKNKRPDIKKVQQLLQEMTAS

`CCC[C@H](N)c1cccc(-c2cc(OCCOC)c3cnn(-c4cccc(CO)n4)c3c2)n1` [Example 476, (S)-(6-(6-(6-(1-aminobutyl)pyridin-2-yl)-4-(2-methoxyethoxy)-1H-indazol-1-yl)pyridin-2-yl)methanol]: the IC50 in experiment [1] is less than 100 nM. In experiment [2], this molecule had an EC50 not above 1000 nM.

Turning to `CCC[C@H](N)c1cccc(-c2cc(OC(C)C)c3cnn(-c4cccc(CO)n4)c3c2)n1` [Example 483, (6-{6-[6-((S)-1-Amino-butyl)-pyridin-2-yl]-4-isopropoxy-indazol-1-yl}-pyridin-2-yl)-methanol], the half-inhibitory concentration (IC50) in experiment [1] is less than 100 nM. In experiment [2], the EC50 was not above 1000 nM.

In experiment [1], `CC[C@H](N)c1cccc(-c2cc(NC)c3cnn(-c4cccc(CO)n4)c3c2)n1` [Example 485, (S)-(6-(6-(6-(1-aminopropyl)pyridin-2-yl)-4-(methylamino)-1H-indazol-1-yl)pyridin-2-yl)methanol] came in with an IC50 of less than 100 nM. The same molecule registered an EC50 in experiment [2] not above 1000 nM.

As for `CCC[C@H](N)c1cccc(-c2ccc3cnn(-c4nccc(C(F)F)n4)c3c2)n1` [Example 486, (S)-1-(6-(1-(4-(difluoromethyl)pyrimidin-2-yl)-1H-indazol-6-yl)pyridin-2-yl)butan-1-amine], in experiment [1], the IC50 was less than 100 nM. Moreover, in experiment [2], the EC50 was not above 1000 nM.

In experiment [1], `CCC[C@H](N)c1cccc(-c2cc(CF)c3cnn(-c4cccc(CO)n4)c3c2)n1` [Example 487, (S)-(6-(6-(6-(l-aminobutyl)pyridin-2-yl)-4-(fluoromethyl)-1H-indazol-1-yl)pyridin-2-yl)methanol] came in with an IC50 of less than 100 nM. This molecule gave an EC50 in experiment [2] not above 1000 nM.

Molecule `CCC[C@H](N)c1cccc(-c2cc(C3=CCN(C(C)=O)CC3)c3cnn(-c4cccc(CO)n4)c3c2)n1` [Example 488, (S)-1-(4-(6-(6-(1-aminobutyl)pyridin-2-yl)-1-(6-(hydroxymethyl)pyridin-2-yl)-1H-indazol-4-yl)-5,6-dihydropyridin-1(2H)-yl)ethanone] showed an IC50 in experiment [1] of less than 100 nM. Besides, in experiment [2], the concentration for a half-maximal effect (EC50) is not above 1000 nM.

In turn, `CCC[C@H](N)c1cccc(-c2cc(OC)c3cnn(-c4cncc(CO)n4)c3c2)n1` [Example 489, (S)-(6-(6-(6-(1-aminobutyl)pyridin-2-yl)-4-methoxy-1H-indazol-1-yl)pyrazin-2-yl)methanol] yielded an IC50 in experiment [1] of less than 100 nM. In addition, the EC50 in experiment [2] was not above 1000 nM.

Take `CCC[C@H](N)c1cccc(-c2cc(Cl)c3cnn(-c4cccc(CO)n4)c3c2)n1` [Example 490, (S)-(6-(6-(6-(1-aminobutyl)pyridin-2-yl)-4-chloro-1H-indazol-1-yl)pyridin-2-yl)methanol]: in experiment [1], the IC50 was less than 100 nM. For the same molecule, the EC50 in experiment [2] was not above 1000 nM.

Turning to `CCC[C@H](N)c1cccc(-c2cc(C(F)F)c3cnn(-c4cccc(CO)n4)c3c2)n1` [Example 491, (S)-(6-(6-(6-(1-aminobutyl)pyridin-2-yl)-4-(difluoromethyl)-1H-indazol-1-yl)pyridin-2-yl)methanol], in experiment [1], the IC50 is less than 100 nM. Also, the EC50 in experiment [2] is not above 1000 nM.

In turn, `CCC[C@H](N)c1cccc(-c2cc(CO)c3cnn(-c4cccc(CO)n4)c3c2)n1` [Example 492, (S)-(6-(6-(1-aminobutyl)pyridin-2-yl)-1-(6-(hydroxymethyl)pyridin-2-yl)-1H-indazol-4-yl)methanol] returned an IC50 in experiment [1] of less than 100 nM. The same molecule returned an EC50 in experiment [2] not above 1000 nM.

In turn, `CCCC[C@H](N)c1cccc(-c2ccc3cnn(-c4cccc(CO)n4)c3c2)n1` [Example 493, (S)-(6-(6-(6-(1-aminopentyl)pyridin-2-yl)-1H-indazol-1-yl)pyridin-2-yl)methanol] returned an IC50 in experiment [1] of less than 100 nM. The EC50 in experiment [2] was not above 1000 nM.

In the case of `CCC[C@H](N)c1cccc(-c2cc(C3=CCOCC3)c3cnn(-c4cccc(CO)n4)c3c2)n1` [Example 494, (S)-(6-(6-(6-(1-aminobutyl)pyridin-2-yl)-4-(3,6-dihydro-2H-pyran-4-yl)-1H-indazol-1-yl)pyridin-2-yl)methanol], the IC50 in experiment [1] was less than 100 nM. The molecule further yielded an EC50 in experiment [2] not above 1000 nM.

With `CCC[C@H](N)c1cccc(-c2cc(COC)c3cnn(-c4cccc(CO)n4)c3c2)n1` [Example 495, (S)-(6-(6-(6-(1-aminobutyl)pyridin-2-yl)-4-(methoxymethyl)-1H-indazol-1-yl)pyridin-2-yl)methanol], the IC50 in experiment [1] is less than 100 nM. For the same molecule, the EC50 in experiment [2] was not above 1000 nM.

`COc1cc(-c2cccc([C@@H](N)C3CC3)n2)cc2c1cnn2-c1cncc(CO)n1` [Example 496, (S)-(6-(6-(6-(amino(cyclopropyl)methyl)pyridin-2-yl)-4-methoxy-1H-indazol-1-yl)pyrazin-2-yl)methanol] showed an IC50 in experiment [1] of less than 100 nM. Besides, the EC50 in experiment [2] is not above 1000 nM.

Molecule `CCC[C@H](N)c1cccc(-c2cc(COC(F)F)c3cnn(-c4cccc(CO)n4)c3c2)n1` [Example 497, (S)-(6-(6-(6-(1-aminobutyl)pyridin-2-yl)-4-((difluoromethoxy)methyl)-1H-indazol-1-yl)pyridin-2-yl)methanol] showed an IC50 in experiment [1] of less than 100 nM. For the same molecule, the EC50 in experiment [2] is not above 1000 nM.

In the case of `CCC[C@H](N)c1cccc(-c2cc(CN3CCOCC3)c3cnn(-c4cccc(CO)n4)c3c2)n1` [Example 498, (S)-(6-(6-(6-(1-aminobutyl)pyridin-2-yl)-4-(morpholinomethyl)-1H-indazol-1-yl)pyridin-2-yl)methanol], the IC50 in experiment [1] is less than 100 nM. Moreover, the EC50 in experiment [2] is not above 1000 nM.

In experiment [1], `CCC[C@H](N)c1cccc(-c2cc(OCC)c3cnn(-c4cncc(CO)n4)c3c2)n1` [Example 499, (S)-(6-(6-(6-(1-aminobutyl)pyridin-2-yl)-4-ethoxy-1H-indazol-1-yl)pyrazin-2-yl)methanol] gave an IC50 of less than 100 nM. This molecule also registered an EC50 in experiment [2] not above 1000 nM.

With `CCOc1cc(-c2cccc([C@@H](N)CC)n2)cc2c1cnn2-c1cncc(CO)n1` [Example 500, (S)-(6-(6-(6-(1-aminopropyl)pyridin-2-yl)-4-ethoxy-1H-indazol-1-yl)pyrazin-2-yl)methanol], the IC50 in experiment [1] was less than 100 nM. In experiment [2], this molecule yielded an EC50 not above 1000 nM.

For `CCOc1cc(-c2cccc([C@@H](N)C3CC3)n2)cc2c1cnn2-c1cncc(CO)n1` [Example 501, (S)-(6-(6-(6-(amino(cyclopropyl)methyl)pyridin-2-yl)-4-ethoxy-1H-indazol-1-yl)pyrazin-2-yl)methanol], in experiment [1], the IC50 is less than 100 nM. In experiment [2], this molecule displayed an EC50 not above 1000 nM.

`COc1cc(-c2cccc([C@@H](N)CCC(F)(F)F)n2)cc2c1cnn2-c1cccc(CO)n1` [Example 502, (S)-(6-(6-(6-(1-amino-4,4,4-trifluorobutyl)pyridin-2-yl)-4-methoxy-1H-indazol-1-yl)pyridin-2-yl)methanol] came in with an IC50 in experiment [1] of less than 100 nM. The molecule further displayed an EC50 in experiment [2] not above 1000 nM.

`CC[C@H](N)c1cccc(-c2cc(OC)c3cnn(-c4cncc(CO)n4)c3c2)n1` [Example 503, (S)-(6-(6-(6-(1-aminopropyl)pyridin-2-yl)-4-methoxy-1H-indazol-1-yl)pyrazin-2-yl)methanol]: the IC50 in experiment [1] is less than 100 nM. Further, the EC50 in experiment [2] is not above 1000 nM.

Take `CCC[C@H](N)c1cccc(-c2cc(OC)c3cnn(-c4nccc(C(F)(F)F)n4)c3c2)n1` [Example 504, (S)-1-(6-(4-methoxy-1-(4-(trifluoromethyl)pyrimidin-2-yl)-1H-indazol-6-yl)pyridin-2-yl)butan-1-amine]: the IC50 in experiment [1] is less than 100 nM. The same molecule gave an EC50 in experiment [2] not above 1000 nM.

In turn, `CCC[C@H](N)c1cccc(-c2cc(OCC)c3cnn(-c4nccc(C(F)(F)F)n4)c3c2)n1` [Example 505, (S)-1-(6-(4-ethoxy-1-(4-(trifluoromethyl)pyrimidin-2-yl)-1H-indazol-6-yl)pyridin-2-yl)butan-1-amine] came in with an IC50 in experiment [1] of less than 100 nM. Further, in experiment [2], the EC50 is not above 1000 nM.

In turn, `CCC[C@H](N)c1cccc(-c2cc(OCC3CCCNC3)c3cnn(-c4cccc(CO)n4)c3c2)n1` (stereo partly drawn) [Example 506, (6-(6-(6-((S)-1-aminobutyl)pyridin-2-yl)-4-(piperidin-3-ylmethoxy)-1H-indazol-1-yl)pyridin-2-yl)methanol] had an IC50 in experiment [1] of less than 100 nM. Besides, the EC50 in experiment [2] is not above 1000 nM.

Consider `CCC(O)C(N)c1cccc(-c2ccc3cnn(-c4cccc(CO)n4)c3c2)n1` (stereo not shown) [Example 507, 1-amino-1-(6-(1-(6-(hydroxymethyl)pyridin-2-yl)-1H-indazol-6-yl)pyridin-2-yl)butan-2-ol], for which the IC50 in experiment [1] was less than 100 nM. The same molecule returned an EC50 in experiment [2] not above 1000 nM.

Take `CC(O)CC(N)c1cccc(-c2ccc3cnn(-c4cccc(CO)n4)c3c2)n1` (stereo not shown) [Example 508, 4-amino-4-(6-(1-(6-(hydroxymethyl)pyridin-2-yl)-1H-indazol-6-yl)pyridin-2-yl)butan-2-ol]: the IC50 in experiment [1] was less than 100 nM. The same molecule registered an EC50 in experiment [2] not above 1000 nM.

Turning to `COCCC[C@H](N)c1cccc(-c2cc(OC)c3cnn(-c4cccc(CO)n4)c3c2)n1` [Example 509, (S)-(6-(6-(6-(1-amino-4-methoxybutyl)pyridin-2-yl)-4-methoxy-1H-indazol-1-yl)pyridin-2-yl)methanol], the IC50 in experiment [1] is less than 100 nM. The EC50 in experiment [2] was not above 1000 nM.

`CCOc1cc(-c2cccc([C@@H](N)CCC(F)(F)F)n2)cc2c1cnn2-c1cccc(CO)n1` [Example 510, (S)-(6-(6-(6-(1-amino-4,4,4-trifluorobutyl)pyridin-2-yl)-4-ethoxy-1H-indazol-1-yl)pyridin-2-yl)methanol] registered a half-maximal inhibitory concentration (IC50) in experiment [1] of less than 100 nM. Moreover, in experiment [2], the EC50 was not above 1000 nM.

In experiment [1], `CCC[C@H](N)c1cccc(-c2cc(C#N)c3cnn(-c4cccc(CO)n4)c3c2)n1` [Example 511, (S)-6-(6-(1-aminobutyl)pyridin-2-yl)-1-(6-(hydroxymethyl)pyridin-2-yl)-1H-indazole-4-carbonitrile] returned an IC50 of less than 100 nM. Also, in experiment [2], the half-maximal effective concentration (EC50) is not above 1000 nM.

These data come from patent publication US10246456B2, “IRAK4 inhibiting agents” (BIOGEN MA INC., priority 2014, dated 2019).
